Laboratory results published in patent publication US20250049737A1, “Lauflumide and derivatives thereof for treating chronic fatigue syndrome and myalgic encephalomyelitis/chronic fatigue syndrome (ME/CFS)” (NLS Pharmaceutics AG, priority 2021, published 2025).

Assays:
[1] = Body weight during fatigue procedure and test period; assay type: in vivo, Rats, Sprague-Dawley; details: test period
Description: FIG. 26 Body weight (in g; mean, SEM) before the beginning and during the fatigue procedure (F-D1-7) and during the test period (T-D1-D3+24 h).
Animals were weighed every day.
After the end of the Fatigue procedure, animals were divided into 10 groups which received before tests (total: 3 administrations) a per-os (p.o., oral gavage) administration of: • Sham (no fatigue) group (N=12): Vehicle. • Control group (N=11): Vehicle. • Modafinil 32 (N=10): modafinil (32 mg/kg). • Modafinil 64 (N=10): modafinil (64 mg/kg). • Modafinil 128 (N=5): modafinil (128 mg/kg). • NLS-4 16 (N=5): NLS-4 (16 mg/kg). • NLS-4 32 (N=10): NLS-4 (32 mg/kg). • NLS-4 64 (N=10): NLS-4 (64 mg/kg). • NLS-4 128 (N=10): NLS-4 (128 mg/kg). • NLS-4 256 (N=5): NLS-4 (256 mg/kg).

[2] = target: T1, NPY1 (h) (reverse agonist radioligand) (Homo sapiens, UniProt P25929); experiment: Radioligand binding panel (Eurofins CEREP), NPY1; details: % inhibition of control specific binding
T1 construct: Eurofins CEREP (contract study 100014859)
T1 sequence (P25929 1-384): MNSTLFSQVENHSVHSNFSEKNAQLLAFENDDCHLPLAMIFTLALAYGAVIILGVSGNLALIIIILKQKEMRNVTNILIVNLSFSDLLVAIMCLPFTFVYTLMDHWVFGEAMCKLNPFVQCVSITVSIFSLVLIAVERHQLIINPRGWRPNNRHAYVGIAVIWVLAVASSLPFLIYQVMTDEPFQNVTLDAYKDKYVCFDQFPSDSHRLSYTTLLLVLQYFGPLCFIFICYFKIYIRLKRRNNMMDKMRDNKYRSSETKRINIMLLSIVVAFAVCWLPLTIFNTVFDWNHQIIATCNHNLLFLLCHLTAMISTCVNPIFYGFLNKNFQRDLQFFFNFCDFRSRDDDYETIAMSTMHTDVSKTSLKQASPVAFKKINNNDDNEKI
Description: Lauflumide is tested at 10^-5 M, calculated as a % inhibition of control specific binding of a radioactively labeled ligand specific for each target.
This binding profile panel was broadly defined with roughly an equal number of selective, central and peripheral therapeutically relevant targets, including native animal tissues, radioligands and specific enzymes involved in cell cycle regulation in accordance with Eurofins Standard Operating Procedure (www.eurofins.fr).
For radioligand binding experiments, the half maximal inhibitory concentration (IC50) and the half maximal effective concentration (EC50) values were determined (via computer software) by nonlinear regression analysis of the competition curves using Hill equation curve fitting. The inhibition constants (Ki) were calculated using the Cheng-Prusoff equation (Ki=IC50/(1+(L/KD)), where L is the concentration of radioligand in the assay, and KD is the affinity of the radioligand for the receptor.
The results are expressed as a % control specific binding ([measured specific binding/control specific binding]×100) and as a % inhibition of control specific binding (100−[(measured specific binding/control specific binding)×100]) obtained in the presence of the test compounds. […]

NC(=O)C[S@@+]([O-])C(c1ccc(F)cc1)c1ccc(F)cc1 [Lauflumide, 2-[(R)-((bis(4-fluorophenyl)methane)sulfinyl)]acetamide]
Weight loss induced by the fatigue procedure ([1]; 16 mg/kg p.o.): not modified
Weight loss induced by the fatigue procedure ([1]; 32-256 mg/kg p.o.): aggravated
% Inhibition at 10^−5M [2]: 27.3%
